“Also recorded” adds a separate entry of the source. Read-outs that look alike come from different tables or passages of the source.
What was measured:
[1] = tested on: Beagle Dog; test: Subacute toxicity screening of two forms of HHT in one dog; type: in vivo; conditions: for Clinical examination: clinical signs: single subcutaneous injection (hydrochloride day 5, base day 11); for Tolerance (toxicology conclusion): one dog, CIVI 48 hours or subcutaneous injection
Protocol: Species/Strain: Beagle Dog […]
treatment 1: Intravenous infusion (IV)
Treatments 2 and 3: subcutaneous injection (SQ) […]
treatment 1: continuous Intravenous infusion (CIVI) for 48 hours (days 1 and 2) treatment 2: single subcutaneous (SQ) injection on day 5 treatment 3: single subcutaneous (SQ) injection on day 11
Duration of treatment: see § administration/day […]
treatments 1 and 2: sterile isotonic saline solution

[2] = Comparative pharmacokinetic study in dogs after subcutaneous injection of hydrochloride and base forms of HHT; conditions: dog, 0.25 mg/kg single subcutaneous injection
Protocol: (§1) Comparative Pharmacokinetic Study in Dogs After Subcutaneous Injection of 5 mg/m2 of Hydrochloride and Base Forms of HHT
(§2) Number of animals/sex/dose: the same dog was used for each treatment
(§3) treatment 1: 0.25 mg/kg of substance A (HHT-hydrochloride form)
(§4) treatment 2: 0.25 mg/kg of substance A (HHT-hydrochloride form)
(§5) treatment 3: 0.25 mg/kg of substance B (HHT-base form)
(§6) Treatment 3: aqueous solution in 0.5% hydroxyethylcellulose with 0.1% Tween 80
(§7) Analytical method: HPLC with flourimetric detection
(§8) Blood samples were collected at time 0, 30, 60, 120, 240, 480 minutes and 24 hours then HHT concentration was determined in plasma by an HPLC method in using a fluorimetric detection.

[3] = tested on: patient with acute myeloid leukemia / blastic phase of chronic myelogenous leukemia
Protocol: In addition, this patient was not eligible for bone marrow transplantation. All current good clinical practices and applicable ethical rules were applied. […] Physicians of this institution were experienced with the clinical use of the same formulation by intravenous mode of administration in patients with myeloid leukemias. […] A 5 mg-vial of lyophilized HHT hydrochloride for injection was reconstituted with 2.5 mL of saline water for injection. A volume corresponding to 1 mg of HHT per square meter of body surface area per day divided In two daily subcutaneous injections (2 subcutaneous injections a day) was administered in a short single injection, during a period of nine (9) consecutive days.

[4] = dog, in vivo, sc
Protocol: as §1, §2, §3, §4, §5, §6, §7, §8

[5] = tested on: patients; conditions: continuous infusion 2.5 mg/m2 daily for 10 to 14 days; cited from earlier work

COC(=O)C[C@](O)(CCCC(C)(C)O)C(=O)O[C@@H]1C(OC)=C[C@]23CCCN2CCc2cc4c(cc2[C@H]13)OCO4 [HHT-base, reference compound]
Clinical examination: clinical signs ([1]; one Beagle dog, 0.25 mg/kg, 0.25 mg/kg): liquid feces with presence of blood, hypersalivation, decrease in activity, pallor of gingival mucous membranes and decrease in activity; also recorded: liquid feces, hypersalivation, decrease in activity and pallor of gingival mucous membrane | Tolerance (toxicology conclusion) ([1]; 0.25 mg/kg): good tolerance | Mortality, time after the beginning of the treatment ([1]; second subcutaneous injection, 0.25 mg/kg, day 11, same dog after earlier treatments): 8 h | Area under the curve (AUC) [2]: 0.0865 µg·h/mL | Maximum of concentration in plasma [2]: 18 ng/mL | Time of maximum of concentration [2]: 0.5 h

COC(=O)C[C@](O)(CCCC(C)(C)O)C(=O)O[C@@H]1C(OC)=C[C@]23CCCN2CCc2cc4c(cc2[C@H]13)OCO4.Cl [HHT hydrochloride]
Local tolerance at the points of injection ([3]; human, in vivo): no local sign of intolerance | Granulocyte count (peripheral blood counts) ([3]; patient #01, SQ 1 mg/m2/day, 9 days): relatively fast decrease | Myelosuppressive effect, post-induction follow-up ([3]; patient #01, SQ 1 mg/m2/day, typical of intravenous HHT 2.5 mg/m2/day): strong myelosuppressive effect | Clinical improvements compared with examples 3 and 4 ([3]; patient #03, acute myeloid leukemia): Same clinical improvements as those seen in example 3 and 4 | Body weight loss ([1]; after treatment 1: 0.25 mg/kg continuous intravenous infusion 48 hours): 1.1 kg | Body weight loss ([1]; after treatment 2: 0.25 mg/kg single subcutaneous injection on day 5): 0.4 kg | Local tolerance, microscopic examination (histopathology) of skin biopsy ([1]; biopsy taken on day 6, the day after the SQ injection, 0.25 mg/kg): well tolerated at the local level | Clinical signs following CIVI ([1]; one Beagle dog, 0.25 mg/kg, continuous intravenous infusion for 48 hours): No clinical signs | Clinical examination: clinical signs ([1]; one Beagle dog, 0.25 mg/kg): yellowish vomiting, soft feces, transient decrease in activity and hypersalivation | Tolerance (toxicology conclusion) ([1]; 0.25 mg/kg): good tolerance | Bioavailability of salt form versus base form [4]: considerably higher (triple) | Area under the curve (AUC) ([4]; 0.25 mg/kg): 0.28 µg·h/mL | Calculated rate AUC HHT-hydrochloride/AUC HHT-base ([4]; 0.25 mg/kg): 3.24 | Maximum of concentration in plasma ([4]; 0.25 mg/kg): 112 ng/mL | Time of maximum of concentration ([4]; 0.25 mg/kg): 2 h

COC(=O)C[C@](O)(CCCC(C)(C)O)C(=O)O[C@@H]1C(OC)=C[C@]23CCCN2CCc2cc4c(cc2[C@H]13)OCO4 [HHT, homoharringtonine]
Cardiovascular complications including hypotensive events and arrythmias, patients affected [5]: less than 5 % of patients
